Measurements published in ChEMBL document CHEMBL1201862, “PubChem BioAssay data set” (2004).
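1) Cells in 96-well plates. 2) Compound, 48 h, 5 concentrations. 3) Linear interpolation between surrounding doses. 4) Unreached endpoint = highest concentration. At the GI50, growth is halved.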 Activity calls are given as the source filed them. No stated cut-off is given here; in the data, active = GI50 up to about 1.1 µM and inactive = higher.

Tests used:
Assay in all cases: inhibition of tumour cell growth, NCI panel, 48 h
SF-295 = system: SF-295
EKVX = system: EKVX
U-251 = system: U-251
ACHN = system: ACHN
TK-10 = system: TK-10
HOP-62 = system: HOP-62
CAKI-1 = system: CAKI-1
LOX IMVI = system: LOX IMVI
KM12 = system: KM12
HL-60 = system: HL-60
A549 = system: A549
MDA-N = system: MDA-N
NCI-H522 = system: NCI-H522
RXF 393 = system: RXF 393
SNB-75 = system: SNB-75
MDA-MB-231 = system: MDA-MB-231
SF-539 = system: SF-539
MDA-MB-435 = system: MDA-MB-435
UO-31 = system: UO-31
COLO 205 = system: COLO 205
SN12C = system: SN12C
SK-MEL-5 = system: SK-MEL-5
SNB-19 = system: SNB-19
NCI/ADR-RES = system: NCI/ADR-RES
RPMI-8226 = system: RPMI-8226
HOP-92 = system: HOP-92
SR = system: SR
786-0 = system: 786-0
DU-145 = system: DU-145
OVCAR-4 = system: OVCAR-4
T47D = system: T47D
NCI-H226 = system: NCI-H226
UACC-62 = system: UACC-62
BT-549 = system: BT-549
HCT-116 = system: HCT-116
OVCAR-8 = system: OVCAR-8
A498 = system: A498
IGROV-1 = system: IGROV-1
SK-MEL-28 = system: SK-MEL-28
HCT-15 = system: HCT-15
NCI-H460 = system: NCI-H460
OVCAR-3 = system: OVCAR-3
MCF7 = system: MCF7
SK-MEL-2 = system: SK-MEL-2
MOLT-4 = system: MOLT-4
SK-OV-3 = system: SK-OV-3
SW-620 = system: SW-620
M14 = system: M14
UACC-257 = system: UACC-257
Malme-3M = system: Malme-3M
Hs-578T = system: Hs-578T
K562 = system: K562
HT-29 = system: HT-29
OVCAR-5 = system: OVCAR-5
SF-268 = system: SF-268
CCRF-CEM = system: CCRF-CEM
PC-3 = system: PC-3
NCI-H23 = system: NCI-H23
HCC 2998 = system: HCC 2998

Measured: GI50

COc1ccc(/C=C/C(=O)c2nc3ccccc3[nH]2)cc1
inactive: SF-295 21 µM | EKVX 15.1 µM | U-251 13.8 µM | ACHN 15.1 µM | TK-10 18.1 µM | HOP-62 25.4 µM | CAKI-1 33.3 µM | LOX IMVI 9.91 µM | KM12 4.62 µM | HL-60 9.79 µM | A549 24.9 µM | MDA-N 11.9 µM | NCI-H522 13.6 µM | RXF 393 15.5 µM | SNB-75 19.8 µM | MDA-MB-231 23.4 µM | SF-539 8.32 µM | MDA-MB-435 11.7 µM | UO-31 15.7 µM | COLO 205 13.2 µM | SN12C 25.7 µM | SK-MEL-5 17.9 µM | SNB-19 24.2 µM | NCI/ADR-RES 18.2 µM | RPMI-8226 3.8 µM | HOP-92 14 µM | SR 2.71 µM | 786-0 11.6 µM | DU-145 17.3 µM | OVCAR-4 21.1 µM | T47D 10.7 µM | NCI-H226 5.32 µM | UACC-62 17.6 µM | BT-549 22.5 µM | HCT-116 5.37 µM | OVCAR-8 21 µM | A498 26.4 µM | IGROV-1 6.07 µM | SK-MEL-28 24.5 µM | NCI-H460 20.5 µM | OVCAR-3 17.8 µM | MCF7 8.38 µM | SK-MEL-2 28.6 µM | MOLT-4 18 µM | SK-OV-3 21.2 µM | SW-620 13.5 µM | M14 20.3 µM | UACC-257 22 µM | Malme-3M 19 µM | Hs-578T 21.3 µM | K562 4.88 µM | HT-29 7.03 µM | OVCAR-5 22 µM | SF-268 15.2 µM | CCRF-CEM > 100 µM | PC-3 21.8 µM
10.9 µM: HCT-15

O=C1CCN2C(=N1)Sc1ccccc12
inactive: SF-295 > 100 µM | EKVX > 100 µM | U-251 > 100 µM | ACHN > 100 µM | TK-10 > 100 µM | HOP-62 > 100 µM | CAKI-1 > 100 µM | LOX IMVI > 100 µM | KM12 > 100 µM | HL-60 > 100 µM | A549 > 100 µM | MDA-N > 100 µM | NCI-H522 > 100 µM | RXF 393 > 100 µM | SNB-75 > 100 µM | MDA-MB-231 > 100 µM | SF-539 > 100 µM | NCI-H23 > 100 µM | MDA-MB-435 > 100 µM | COLO 205 > 100 µM | SN12C > 100 µM | SK-MEL-5 > 100 µM | SNB-19 > 100 µM | NCI/ADR-RES > 100 µM | RPMI-8226 > 100 µM | HOP-92 > 100 µM | SR > 100 µM | 786-0 > 100 µM | DU-145 > 100 µM | OVCAR-4 > 100 µM | T47D > 100 µM | NCI-H226 > 100 µM | UACC-62 > 100 µM | BT-549 > 100 µM | HCT-116 > 100 µM | OVCAR-8 > 100 µM | IGROV-1 > 100 µM | SK-MEL-28 > 100 µM | NCI-H460 > 100 µM | OVCAR-3 > 100 µM | MCF7 > 100 µM | SK-MEL-2 > 100 µM | MOLT-4 > 100 µM | SK-OV-3 > 100 µM | SW-620 > 100 µM | M14 > 100 µM | UACC-257 > 100 µM | Malme-3M > 100 µM | Hs-578T > 100 µM | K562 > 100 µM | HT-29 > 100 µM | OVCAR-5 > 100 µM | SF-268 > 100 µM | CCRF-CEM > 100 µM | PC-3 > 100 µM
> 100 µM: HCT-15

CN1C/C(=C\c2cccs2)C2=NN(c3ccccc3)C(c3cccs3)C2C1 (configuration not stated)
inactive: SF-295 4.95 µM | EKVX 14.7 µM | U-251 12 µM | ACHN > 34 µM | TK-10 31.6 µM | HOP-62 11.1 µM | CAKI-1 > 72.9 µM | LOX IMVI 5.08 µM | KM12 4.35 µM | HL-60 1.59 µM | A549 7.33 µM | MDA-N 1.59 µM | NCI-H522 3.43 µM | MDA-MB-231 21.9 µM | SF-539 17.4 µM | NCI-H23 > 100 µM | MDA-MB-435 1.61 µM | UO-31 50 µM | COLO 205 5.16 µM | SN12C 4.39 µM | SK-MEL-5 11.9 µM | SNB-19 5.93 µM | NCI/ADR-RES 3.77 µM | RPMI-8226 3.59 µM | SR 1.71 µM | 786-0 3.49 µM | DU-145 5.33 µM | OVCAR-4 4.47 µM | T47D 76 µM | NCI-H226 > 100 µM | UACC-62 > 100 µM | BT-549 17.9 µM | HCT-116 2.7 µM | OVCAR-8 10.5 µM | A498 > 27.3 µM | IGROV-1 4.06 µM | SK-MEL-28 > 100 µM | NCI-H460 3.52 µM | OVCAR-3 2.79 µM | MCF7 13.3 µM | SK-MEL-2 25.5 µM | MOLT-4 3.4 µM | SK-OV-3 > 73.3 µM | SW-620 4.6 µM | M14 3.91 µM | UACC-257 5.92 µM | Hs-578T > 100 µM | K562 3.96 µM | HT-29 3.14 µM | HCC 2998 6.21 µM | OVCAR-5 > 100 µM | CCRF-CEM 2 µM | PC-3 10.7 µM
3.78 µM: HCT-15
